The values that follow come from patent US8012983B2, “Substituted triazolopyrazines useful for the treatment of degenerative and inflammatory diseases” (Galapagos NV, priority 2008, dated 2011).

Molecules are shown by their SMILES. Bounds are passed on as bounds.

For one data set, the target named is T1, MAPKAPK5 (Homo sapiens, UniProt Q8IW41).
T1 sequence (Q8IW41 1-471 isoform Q8IW41-2): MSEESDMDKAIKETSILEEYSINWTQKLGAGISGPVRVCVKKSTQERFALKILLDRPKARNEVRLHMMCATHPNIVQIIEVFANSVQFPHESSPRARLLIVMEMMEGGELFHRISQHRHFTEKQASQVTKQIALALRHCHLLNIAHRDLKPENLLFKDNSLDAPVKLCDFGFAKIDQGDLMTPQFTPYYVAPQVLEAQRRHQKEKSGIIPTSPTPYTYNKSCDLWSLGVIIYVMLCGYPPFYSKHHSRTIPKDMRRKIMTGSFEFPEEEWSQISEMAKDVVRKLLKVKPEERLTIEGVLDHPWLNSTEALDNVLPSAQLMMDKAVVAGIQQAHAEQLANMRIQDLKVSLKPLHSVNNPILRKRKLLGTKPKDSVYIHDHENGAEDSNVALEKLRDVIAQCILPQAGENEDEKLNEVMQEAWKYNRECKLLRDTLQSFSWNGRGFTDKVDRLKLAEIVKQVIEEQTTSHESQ
The data set can be described thus: MAPKAP-K5 FlashPlate kinase assay. Type of data set: biochemical. The note with it: 0.6 μM ATP, 30 minutes, room temperature. The method, then: MAPKAP-K5 reactions are performed in FlashPlate format using 0.1 or 0.2 μCi 33P-ATP; 0.6 μM ATP; 1 mU MAPKAP-K5; 3 μM MAPKAP-K5 peptide substrate, incubated at room temperature for 30 minutes.
The MAPKAP-K5 kinase reaction is performed in a 384 well polypropylene plate (Matrix Technologies) and then transferred to a streptavidin-coated 384 well flashplate (Perkin-Elmer). To wells containing 2 μL test compound or standard inhibitor, 13 μL Enzyme mix or diluent are added using a Hydra (Robbins Scientific). Reactions are started by addition of 10 μL of [2.5×] substrate cocktail using a Multidrop (Thermo-Labsystems), to give final concentrations in the assay of: • 1 mU MAPKAP-K5 • 3 μM MAPKAP-K5 peptide substrate • 0.6 μM ATP • 0.004 μCi [33P]-γ-ATP/μL • 1× reaction buffer
Plates are incubated at room temperature for 30 minutes. Reactions are terminated by the addition of 25 μL EDTA (50 mM) to each well using a Micro-fill (Biotek). Reactions are transferred to a streptavidin-coated flashplate using a Zymark robotic system. Plates are incubated for 60 minutes at room temperature. All wells are washed 3 times with 100 μl phosphate buffered saline using a Tecan plate washer. Radioactivity is determined by scintillation counting of the flashplate (empty wells) on a Packard TopCount.
Enzyme Mix: • Enzyme • 50 mM Tris Hcl (pH 7.5) • 0.1 mM EGTA • 2 mM DTT • 1 mg/mL BSA
Reaction Buffer: • 50 mM Tris Hcl (pH 7.5) • 0.1 mM EGTA • 10 mM Magnesium acetate • 2 mM DTT
As for `CC(C)N1C[C@@H]2C[C@H]1CN2c1ccc(Nc2ncc(-c3ccc4c(c3)CNC4=O)n3ncnc23)cc1` [Compound 1, 5-{8-[4-((1S,4S)-5-Isopropyl-2,5-diaza-bicyclo[2.2.1]hept-2-yl)-phenylamino]-[1,2,4]triazolo[1,5-a]pyrazin-5-yl}-2,3-dihydro-isoindol-1-one], the IC50 lay in the range of 0.01 to 100 nM.

`CC(C)(C)N1C[C@@H]2C[C@H]1CN2c1ccc(Nc2ncc(-c3coc(C(N)=O)c3)n3ncnc23)cc1` [Compound 3, 4-{8-[4-((1S,4S)-5-tert-Butyl-2,5-diaza-bicyclo[2.2.1]hept-2-yl)-phenylamino]-[1,2,4]triazolo[1,5-a]pyrazin-5-yl}-furan-2-carboxamide] came in with an IC50 of 0.01 to 100 nM.

`CC(C)N1C[C@@H]2C[C@H]1CN2c1ccc(Nc2ncc(-c3coc(C(N)=O)c3)n3ccnc23)cc1` [Compound 4, 4-{8-[4-((1S,4S)-5-Isopropyl-2,5-diaza-bicyclo[2.2.1]hept-2-yl)-phenylamino]-imidazo[1,2-a]pyrazin-5-yl}-furan-2-carboxamide] had an IC50 of 101 to 500 nM.

`CC(C)N1C[C@@H]2C[C@H]1CN2c1ccc(Nc2ncc(-c3cc(C(N)=O)n[nH]3)n3ncnc23)cc1` [Compound 5, 5-{8-(4-((1S,4S)-5-isopropyl-2,5-diazabicyclo[2.2.1]heptan-2-yl)phenyl-amino)-[1,2,4]triazolo[1,5-a]pyrazin-5-yl}-1H-pyrazole-3-carboxamide]: the IC50 fell in the range of 101 to 500 nM.

In the case of `CC(C)(C)N1C[C@@H]2C[C@H]1CN2c1ccc(Nc2ncc(-c3coc(C(N)=O)c3)n3ccnc23)cc1` [Compound 6], the IC50 is 101 to 500 nM.

`CC(C)N1C[C@@H]2C[C@H]1CN2c1ccc(Nc2ncc(-c3cc[nH]c(=O)c3)n3ccnc23)cc1` [Compound 8, 4-{8-(4-((1S,4S)-5-isopropyl-2,5-diazabicyclo[2.2.1]heptan-2-yl)phenyl-amino)imidazo[1,2-a]pyrazin-5-yl}-1H-pyridin-2-one]: the IC50 fell in the range of 101 to 500 nM.

Turning to `CC(C)N1CC2CCC1CN2c1ccc(Nc2ncc(-c3coc(C(N)=O)c3)n3ncnc23)cc1` (stereo not shown) [Compound 9, 4-{8-(4-(5-isopropyl-2,5-diazabicyclo[2.2.2]octan-2-yl)phenylamino)[1,2,4]-triazolo[1,5-a]pyrazin-5-yl}-furan-2-carboxamide], the IC50 was 0.01 to 100 nM.

As to `CC(C)N1CC2CCC(C1)N2c1ccc(Nc2ncc(-c3coc(C(N)=O)c3)n3ccnc23)cc1` [Compound 11, 4-{8-(4-(3-isopropyl-3,8-diazabicyclo[3.2.1]octan-8-yl)phenylamino)-imidazo[1,2-a]pyrazin-5-yl}-furan-2-carboxamide], the IC50 was in the range of 101 to 500 nM.

`CC(C)N1C2CCC1CN(c1ccc(Nc3ncc(-c4coc(C(N)=O)c4)n4ncnc34)cc1)C2` [Compound 12, 4-{8-(4-(8-isopropyl-3,8-diazabicyclo[3.2.1]octan-3-yl)phenylamino)[1,2,4]-triazolo[1,5-a]pyrazin-5-yl}-furan-2-carboxamide] had an IC50 of 0.01 to 100 nM.

Turning to `CC(C)N1C[C@@H]2C[C@H]1CN2c1ccc(Nc2ncc(-c3cc(C(N)=O)n[nH]3)n3ncnc23)cn1` [Compound 15, 5-{8-(6-((1S,4S)-5-isopropyl-2,5-diazabicyclo[2.2.1]heptan-2-yl)pyridin-3-ylamino)-[1,2,4]triazolo[1,5-a]pyrazin-5-yl}-1H-pyrazole-3-carboxylic acid amide], the IC50 is 101 to 500 nM.

`CC(C)(C)N1C[C@@H]2C[C@H]1CN2c1ccc(Nc2ncc(-c3ccc4c(c3)CNC4=O)n3ncnc23)cc1` [Compound 16, 5-{8-(4-((1S,4S)-5-tert-butyl-2,5-diazabicyclo[2.2.1]heptan-2-yl)phenylamino)-[1,2,4]triazolo-[1,5-a]pyrazin-5-yl}-2,3-dihydro-isoindol-1-one] came in with an IC50 of 101 to 500 nM.

In turn, `CC(C)(C)N1C[C@@H]2C[C@H]1CN2c1ccc(Nc2ncc(-c3cc(C(N)=O)n[nH]3)n3ncnc23)cc1` [Compound 17, 5-{8-(4-((1S,4S)-5-tert-butyl-2,5-diazabicyclo[2.2.1]heptan-2-yl)phenyl-amino)-[1,2,4]triazolo[1,5-a]pyrazin-5-yl}-1H-pyrazole-3-carboxylic acid amide] registered an IC50 of 101 to 500 nM.

Consider `CC(C)N1C[C@@H]2C[C@H]1CN2c1ccc(Nc2ncc(-c3ccc4c(c3)CNC4=O)n3ncnc23)cn1` [Compound 18, 5-{8-(6-((1S,4S)-5-isopropyl-2,5-diazabicyclo[2.2.1]heptan-2-yl)pyridin-3-ylamino)-[1,2,4]triazolo[1,5-a]pyrazin-5-yl}-2,3-dihydro-isoindol-1-one], for which the half-inhibitory concentration (IC50) was in the range of 101 to 500 nM.

`CCOc1cc(-c2cnc(Nc3ccc(N4C[C@@H]5C[C@H]4CN5C(C)C)cc3)c3ncnn23)ccn1` [Compound 19, 5-(2-ethoxypyridin-4-yl)-N-(4-((1S,4S)-5-isopropyl-2,5-diazabicyclo[2.2.1]heptan-2-yl)phenyl)-[1,2,4]triazolo[1,5-a]pyrazin-8-amine] returned an IC50 of over 1000 nM.

Molecule `CC(C)N1C[C@@H]2C[C@H]1CN2c1ccc(Nc2ncc(-c3cc[nH]c(=O)c3)n3ncnc23)cc1` [Compound 20, 4-(8-(4-((1S,4S)-5-isopropyl-2,5-diazabicyclo[2.2.1]heptan-2-yl)phenylamino)-[1,2,4]triazolo[1,5-a]pyrazin-5-yl)pyridin-2(1H)-one] showed an IC50 of over 1000 nM.

For `CCOC(=O)c1cc(-c2cnc(Nc3ccc(N4C[C@@H]5C[C@H]4CN5C(C)C)cc3)c3ncnn23)[nH]n1` [Compound 21, Ethyl 5-(8-(4-((1S,4S)-5-isopropyl-2,5-diazabicyclo[2.2.1]heptan-2-yl)phenylamino)-[1,2,4]triazolo[1,5-a]pyrazin-5-yl)-1H-pyrazole-3-carboxylate], the half-maximal inhibitory concentration (IC50) is over 1000 nM.

The molecule `CCOc1cc(-c2cnc(Nc3ccc(N4C[C@@H]5C[C@H]4CN5C(C)C)cc3)c3nccn23)ccn1` [Compound 22, 5-(2-ethoxypyridin-4-yl)-N-(4-((1S,4S)-5-isopropyl-2,5-diazabicyclo[2.2.1]heptan-2-yl)phenyl)imidazo[1,2-a]pyrazin-8-amine] returned an IC50 of over 1000 nM.

Take `CC(C)N1C[C@@H]2C[C@H]1CN2c1ccc(Nc2ncc(-c3noc(C(N)=O)n3)n3ncnc23)cc1` [Compound 23, 3-(8-(4-((1S,4S)-5-isopropyl-2,5-diazabicyclo[2.2.1]heptan-2-yl)phenylamino)-[1,2,4]triazolo[1,5-a]pyrazin-5-yl)-1,2,4-oxadiazole-5-carboxamide]: the IC50 is over 1000 nM.

`CC(C)N1C[C@@H]2C[C@H]1CN2c1cccc(Nc2ncc(-c3coc(C(N)=O)c3)n3ncnc23)c1` [Compound 24, 4-(8-(3-((1S,4S)-5-isopropyl-2,5-diazabicyclo[2.2.1]heptan-2-yl)phenylamino)-[1,2,4]triazolo[1,5-a]pyrazin-5-yl)furan-2-carboxamide]: the IC50 lay in the range of 0.01 to 100 nM.

In turn, `CC(C)N1C[C@@H]2C[C@H]1CN2c1cccc(Nc2ncc(-c3coc(C(N)=O)c3)n3ccnc23)c1` [Compound 25, 4-(8-(3-((1S,4S)-5-isopropyl-2,5-diazabicyclo[2.2.1]heptan-2-yl)phenylamino)imidazo[1,2-a]pyrazin-5-yl)furan-2-carboxamide] registered an IC50 of 101 to 500 nM.

Take `CC(C)N1C[C@@H]2C[C@H]1CN2c1cccc(Nc2ncc(-c3ccc4c(c3)CNC4=O)n3ncnc23)c1` [Compound 26, 5-(8-(3-((1S,4S)-5-isopropyl-2,5-diazabicyclo[2.2.1]heptan-2-yl)phenylamino)-[1,2,4]triazolo[1,5-a]pyrazin-5-yl)isoindolin-1-one]: the IC50 lay in the range of 101 to 500 nM.

Tested on in a further data set: not listed separately
Description: Tolerability of compounds in healthy mice (body weight). It counts as in vivo. To be noted: 100 mg/kg/d, po, up to two weeks, DBA/1J mice, FIG. 6A. The method, then:
This protocol is designed to assess the tolerability of the compounds of the invention in healthy DBA/1J mice to determine the “therapeutic window” as defined by the dosing range between efficacious (mouse therapeutic Collagen-Induced Arthritis model) and toxic doses.
Compounds are prepared for a dosing regimen of 100 mg/kg/d, po, free base, in a standard volume of injection of 0.1 mL/10 g of mice (equivalent to 10 mg/1 mL). For solution preparations, compounds were dissolved in 0.5% methyl-cellulose and 1% DMSO, once a week.
Groups are randomized based on body weight and treated for up to two weeks. Each group contained 5 mice and received either test compound at 100 mg/kg, a comparison compound at 100 mg/kg/d (Compound A) or vehicle on a daily basis in a dosing volume of 200 μL per mouse.
Potential drug toxicity is monitored by observation every day and by recording body weights three times a week for weight loss. All statistical analyses were performed using Student's t test.
To assess the general tolerability of the treatments, the total body weight is followed throughout the course of the study.
For `CC(C)N1C[C@@H]2C[C@H]1CN2c1ccc(Nc2ncc(-c3ccc4c(c3)CNC4=O)n3ncnc23)cc1` [Compound 1, 5-{8-[4-((1S,4S)-5-Isopropyl-2,5-diaza-bicyclo[2.2.1]hept-2-yl)-phenylamino]-[1,2,4]triazolo[1,5-a]pyrazin-5-yl}-2,3-dihydro-isoindol-1-one], the “General tolerability: total body weight compared to the vehicle” value is listed as “no statistically significant difference”.

The term IC50 denotes the concentration that gives 50% inhibition. High values mean weaker potency in that assay, low ones greater potency in that assay.
